Results from patent US12209071B2, “Triazine derivatives for treating diseases relating to neurotrophins” (AlzeCure Pharma AB, priority 2018, dated 2025).

Legend:
TrkA = molecular target: T1, TrkA (Homo sapiens, UniProt P04629); experiment: Enzyme Fragment Complementation cell-based assay, TrkA; conditions: U2OS-cells over-expressing TrkA; ligand 10 ng/mL; 3 hours incubation
T1 construct: expressed in transfected cells; host or cells: U2OS
Source text: (§1) A high throughput cell-based screen has been used to identify positive modulators of TrkA, TrkB and TrkC. The screen involves the use of cell-based assay overexpressing TrkA, TrkB or TrkC. The purpose of the assay is to identify compounds that modulate neurotrophin signalling (Forsell et al 2012). The assay can be used in inhibitor mode using a high concentration of ligand, in modulator mode using an intermediate concentration and in agonist mode using a low concentration of ligand.
(§2) The assay uses Enzyme Fragment Complementation (EFC) technique, which is a proximity-based assay. Briefly, cells used in this assay over-express two fusion proteins, i.e. the receptor, which can be either one of TrkA, TrkB, TrkC, IGF1R or FGFR1, fused to a small peptide of beta-galactosidase and an adaptor protein, i.e. SHC1 (or any other Trk-adaptor protein) fused to the major part of beta-galactosidase. […] The proximity between the small activating peptide on the receptor and the major part of beta-galactosidase on the adaptor protein leads to an active beta-galactosidase enzyme. The activation of the receptor is quantified by measuring the amount of active beta-galactosidase by its conversion of a non-luminescent substrate into a luminescent product.
(§3) U2OS-cells, over-expressing TrkA or TrkB or TrkC, are plated in 96- or 384-well plates and incubated overnight. Alternatively, cryopreserved HEK293-cells expressing IGFR1 or cryopreserved U2OS-cells expressing FGFR1 were plated in 96- or 384-well plates. On the following day, test compound was pre-mixed with ligand (NGF, BDNF, NT-3, IGF-1 or basic fibroblast growth factor (bFGF(FGF-2))) and the ligand-compound mixture is then added to the cells to yield a final ligand concentration of 10 ng/mL. After 3 hours of incubation at room temperature, the incubation is stopped by the addition of a beta-galactosidase substrate mixture containing detergents. The substrate mixture is incubated for 60 minutes at ambient temperature. The luminescence is thereafter read by the use of a plate reader.

TrkB = molecular target: T2, TrkB (Homo sapiens, UniProt Q16620); experiment: Enzyme Fragment Complementation cell-based assay, TrkB; conditions: U2OS-cells over-expressing TrkB; ligand 10 ng/mL; 3 hours incubation
T2 construct: expressed in transfected cells; host or cells: U2OS
T2 sequence (Q16620 32-822): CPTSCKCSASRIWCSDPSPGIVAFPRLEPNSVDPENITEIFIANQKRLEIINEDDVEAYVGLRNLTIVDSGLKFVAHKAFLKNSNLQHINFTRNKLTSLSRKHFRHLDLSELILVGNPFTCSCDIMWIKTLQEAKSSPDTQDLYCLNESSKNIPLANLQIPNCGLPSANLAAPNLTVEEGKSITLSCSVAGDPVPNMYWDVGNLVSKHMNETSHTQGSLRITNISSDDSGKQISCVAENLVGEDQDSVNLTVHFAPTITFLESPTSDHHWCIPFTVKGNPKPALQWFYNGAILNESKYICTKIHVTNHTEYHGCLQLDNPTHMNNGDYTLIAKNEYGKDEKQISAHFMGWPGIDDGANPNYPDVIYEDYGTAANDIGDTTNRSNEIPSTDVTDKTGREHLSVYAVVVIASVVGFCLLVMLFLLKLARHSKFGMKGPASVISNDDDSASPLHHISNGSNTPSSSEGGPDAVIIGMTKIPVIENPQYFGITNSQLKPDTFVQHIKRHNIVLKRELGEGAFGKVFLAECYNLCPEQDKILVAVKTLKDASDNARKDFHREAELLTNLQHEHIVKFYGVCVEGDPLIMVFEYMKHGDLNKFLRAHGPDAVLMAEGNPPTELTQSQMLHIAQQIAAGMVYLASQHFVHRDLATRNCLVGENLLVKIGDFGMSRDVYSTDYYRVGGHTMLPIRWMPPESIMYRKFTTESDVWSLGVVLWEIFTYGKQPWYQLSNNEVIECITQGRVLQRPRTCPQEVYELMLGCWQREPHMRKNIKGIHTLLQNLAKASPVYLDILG
Source text: as §1, §2, §3

TrkC = molecular target: T3, TrkC (Homo sapiens, UniProt Q16288); experiment: Enzyme Fragment Complementation cell-based assay, TrkC; conditions: U2OS-cells over-expressing TrkC; ligand 10 ng/mL; 3 hours incubation
T3 construct: expressed in transfected cells; host or cells: U2OS
T3 sequence (Q16288 32-839): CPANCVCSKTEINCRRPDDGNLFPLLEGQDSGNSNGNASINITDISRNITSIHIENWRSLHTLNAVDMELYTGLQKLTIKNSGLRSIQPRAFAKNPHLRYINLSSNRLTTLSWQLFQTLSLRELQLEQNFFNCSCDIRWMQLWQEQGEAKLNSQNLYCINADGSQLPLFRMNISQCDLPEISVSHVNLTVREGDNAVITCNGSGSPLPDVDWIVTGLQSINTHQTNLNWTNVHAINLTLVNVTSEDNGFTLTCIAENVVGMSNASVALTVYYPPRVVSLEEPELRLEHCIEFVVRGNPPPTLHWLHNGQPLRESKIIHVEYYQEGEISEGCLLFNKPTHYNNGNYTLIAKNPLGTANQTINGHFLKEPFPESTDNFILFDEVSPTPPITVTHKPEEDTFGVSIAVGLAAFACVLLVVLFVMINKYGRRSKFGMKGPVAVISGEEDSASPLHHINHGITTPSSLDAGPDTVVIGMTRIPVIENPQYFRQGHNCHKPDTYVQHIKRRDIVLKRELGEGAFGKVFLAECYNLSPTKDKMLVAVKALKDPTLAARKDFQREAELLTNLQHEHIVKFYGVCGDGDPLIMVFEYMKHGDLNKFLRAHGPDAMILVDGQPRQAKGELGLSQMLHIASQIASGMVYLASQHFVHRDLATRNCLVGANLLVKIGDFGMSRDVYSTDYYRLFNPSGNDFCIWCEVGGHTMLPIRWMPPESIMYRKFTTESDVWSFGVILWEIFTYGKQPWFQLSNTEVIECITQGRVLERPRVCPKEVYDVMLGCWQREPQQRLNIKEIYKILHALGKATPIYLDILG
Source text: as §1, §2, §3

T1 sequence (P04629 33-796): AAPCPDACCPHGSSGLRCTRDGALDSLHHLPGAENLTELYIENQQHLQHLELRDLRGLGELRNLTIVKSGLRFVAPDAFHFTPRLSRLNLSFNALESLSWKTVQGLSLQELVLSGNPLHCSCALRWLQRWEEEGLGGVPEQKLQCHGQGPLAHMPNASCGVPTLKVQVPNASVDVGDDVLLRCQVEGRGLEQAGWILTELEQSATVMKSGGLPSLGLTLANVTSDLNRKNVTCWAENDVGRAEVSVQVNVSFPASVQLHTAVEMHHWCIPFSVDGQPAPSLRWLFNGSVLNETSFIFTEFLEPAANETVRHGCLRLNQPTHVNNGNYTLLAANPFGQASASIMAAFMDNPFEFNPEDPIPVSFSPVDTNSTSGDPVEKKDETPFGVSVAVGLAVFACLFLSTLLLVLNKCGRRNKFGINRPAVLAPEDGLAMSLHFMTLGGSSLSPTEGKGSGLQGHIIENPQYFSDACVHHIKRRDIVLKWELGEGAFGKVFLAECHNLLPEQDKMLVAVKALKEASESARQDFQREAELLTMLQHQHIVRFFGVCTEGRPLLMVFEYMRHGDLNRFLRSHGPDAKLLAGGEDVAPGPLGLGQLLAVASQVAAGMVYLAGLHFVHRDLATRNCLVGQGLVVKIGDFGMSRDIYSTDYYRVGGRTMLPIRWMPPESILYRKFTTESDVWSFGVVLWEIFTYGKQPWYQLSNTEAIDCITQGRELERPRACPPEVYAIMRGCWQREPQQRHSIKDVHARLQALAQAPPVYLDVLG

Row | SMILES | EC50 (TrkA) [nM] | EC50 (TrkB) [nM] | EC50 (TrkC) [nM]
1 | O=c1[nH]c(=O)n(-c2ccc(Oc3ccccc3)c(OC3CCCC3)c2)c(=O)n1-c1ccccc1 [Example 23, 1-[3-(cyclopentyloxy)-4-phenoxyphenyl]-3-phenyl-1,3,5-triazinane-2,4,6-trione] | 1000 | 920 | 770
2 | COCCOc1cc(-n2c(=O)[nH]c(=O)n(-c3ccccc3)c2=O)ccc1Oc1ccccc1 [Example 29, 1-[3-(2-methoxyethoxy)-4-phenoxyphenyl]-3-phenyl-1,3,5-triazinane-2,4,6-trione] | 560 | 500 | 340
3 | Cn1c(=O)[nH]c(=O)n(-c2ccc(Oc3ccccc3)c(OC3CCOC3)c2)c1=O (stereo not drawn) [Example 22, 1-methyl-3-[3-(oxolan-3-yloxy)-4-phenoxyphenyl]-1,3,5-triazinane-2,4,6-trione] | 1300 | 3600 | 3000
4 | Cc1cc(-n2c(=O)[nH]c(=O)n(-c3ccccc3)c2=O)ccc1Sc1ccccc1 [Example 34, 1-[3-methyl-4-(phenylsulfanyl)phenyl]-3-phenyl-1,3,5-triazinane-2,4,6-trione] | 1600 | 2000 | 1200
5 | Cc1ccc(-n2c(=O)[nH]c(=O)n(-c3ccc(Oc4ccccc4)c(C)c3)c2=O)cc1 [Example 41, 1-(3-methyl-4-phenoxyphenyl)-3-(4-methylphenyl)-1,3,5-triazinane-2,4,6-trione] | 250 | 210 | 140
6 | Cn1c(=O)[nH]c(=O)n(-c2ccc(Oc3ccccc3)c(Cl)c2)c1=O [Example 65, 1-(3-chloro-4-phenoxyphenyl)-3-methyl-1,3,5-triazinane-2,4,6-trione] | 4500 | 1600 | 320
7 | O=c1[nH]c(=O)n(-c2ccc(Oc3ccccc3)c(OCC3COC3)c2)c(=O)n1-c1ccccc1 [Example 25, 1-[3-(oxetan-3-ylmethoxy)-4-phenoxyphenyl]-3-phenyl-1,3,5-triazinane-2,4,6-trione] | 550 | 790 | 1000
8 | Cn1c(=O)[nH]c(=O)n(-c2ccc(Oc3ccc(Cl)cc3)cc2)c1=O [Example 64, 1-[4-(4-chlorophenoxy)phenyl]-3-methyl-1,3,5-triazinane-2,4,6-trione] | 4400 | 5900 | 9600
9 | Cc1ccc(-n2c(=O)[nH]c(=O)n(-c3ccc(Oc4ccccc4)c(C)c3)c2=O)s1 [Example 40, 1-(3-methyl-4-phenoxyphenyl)-3-(5-methylthiophen-2-yl)-1,3,5-triazinane-2,4,6-trione] | 260 | 280 | 140
10 | O=c1[nH]c(=O)n(-c2ccc(Oc3ccccc3)c(Cl)c2)c(=O)n1-c1ccccc1 [Example 39, 1-(3-chloro-4-phenoxyphenyl)-3-phenyl-1,3,5-triazinane-2,4,6-trione] | 1400 | 680 | 880
11 | CC(C)Oc1cc(-n2c(=O)[nH]c(=O)n(C)c2=O)ccc1Oc1ccccc1 [Example 26, 1-methyl-3-[4-phenoxy-3-(propan-2-yloxy)phenyl]-1,3,5-triazinane-2,4,6-trione] | 1100 | 1500 | 2000
12 | O=c1[nH]c(=O)n(-c2ccc(Oc3ccccc3)c(OC3CCOC3)c2)c(=O)n1-c1ccccc1 (stereo not drawn) [Example 17, 1-[3-(oxolan-3-yloxy)-4-phenoxyphenyl]-3-phenyl-1,3,5-triazinane-2,4,6-trione] | 780 | 750 | 480
13 | CC(C)Oc1cc(-n2c(=O)[nH]c(=O)n(-c3ccccc3)c2=O)ccc1Oc1ccccc1 [Example 27, 1-[4-phenoxy-3-(propan-2-yloxy)phenyl]-3-phenyl-1,3,5-triazinane-2,4,6-trione] | 360 | 370 | 330
14 | Cc1cn(Cc2ccccc2)c2ccc(-n3c(=O)[nH]c(=O)n(-c4ccccc4)c3=O)cc12 [Example 36, 1-(1-Benzyl-3-methyl-1H-indol-5-yl)-3-phenyl-1,3,5-triazinane-2,4,6-trione] | 950 | 460 | 1500
15 | COCCOc1cc(-n2c(=O)[nH]c(=O)n(-c3ccc(C)cc3)c2=O)ccc1Oc1ccccc1 [Example 56, 1-[3-(2-methoxyethoxy)-4-phenoxyphenyl]-3-(4-methylphenyl)-1,3,5-triazinane-2,4,6-trione] | 290 | 110 | 170
16 | COc1ccc(-n2c(=O)[nH]c(=O)n(-c3ccc(Oc4ccccc4)cc3)c2=O)cc1 [Example 2, 1-(4-methoxyphenyl)-3-(4-phenoxyphenyl)-1,3,5-triazinane-2,4,6-trione] | 1400 | 2400 | –
17 | O=c1[nH]c(=O)n(-c2ccc(Oc3ccccc3)c(CO)c2)c(=O)n1-c1ccccc1 [Example 75, 1-[3-(hydroxymethyl)-4-phenoxyphenyl]-3-phenyl-1,3,5-triazinane-2,4,6-trione] | 1170 | 1800 | –
18 | Cc1cc(-n2c(=O)[nH]c(=O)n(-c3cccc4ccoc34)c2=O)ccc1Oc1ccccc1 [Example 73, 1-(1-benzofuran-7-yl)-3-(3-methyl-4-phenoxyphenyl)-1,3,5-triazinane-2,4,6-trione] | 140 | 100 | –

Continued by falling EC50 (TrkA), values first:

Row | EC50 (TrkA) [nM] | EC50 (TrkB) [nM] | EC50 (TrkC) [nM] | SMILES
19 | 6900 | 8900 | 3200 | O=c1[nH]c(=O)n(-c2ccc(Nc3ccccc3)cc2)c(=O)n1-c1ccccc1 [Example 20, 1-phenyl-3-[4-(phenylamino)phenyl]-1,3,5-triazinane-2,4,6-trione]
20 | 4500 | 4200 | 2400 | Cc1cn(Cc2ccccc2)c2ccc(-n3c(=O)[nH]c(=O)n(C)c3=O)cc12 [Example 38, 1-(1-benzyl-3-methyl-1H-indol-5-yl)-3-methyl-1,3,5-triazinane-2,4,6-trione]
21 | 590 | 650 | 1100 | Cn1c(=O)[nH]c(=O)n(-c2ccc(Oc3ccccc3)c(OC3CCCC3)c2)c1=O [Example 15, 1-[3-(cyclopentyloxy)-4-phenoxyphenyl]-3-methyl-1,3,5-triazinane-2,4,6-trione]
22 | 500 | 610 | 220 | Cn1c(=O)[nH]c(=O)n(-c2ccc(Oc3ccccc3)c(OCC3COC3)c2)c1=O [Example 24, 1-methyl-3-[3-(oxetan-3-ylmethoxy)-4-phenoxyphenyl]-1,3,5-triazinane-2,4,6-trione]
23 | 480 | 270 | – | Cc1cc(-n2c(=O)[nH]c(=O)n(-c3ccc4[nH]ccc4c3)c2=O)ccc1Oc1ccccc1 [Example 47, 1-(1H-indol-5-yl)-3-(3-methyl-4-phenoxyphenyl)-1,3,5-triazinane-2,4,6-trione]
24 | 390 | 370 | 510 | CCOc1cc(-n2c(=O)[nH]c(=O)n(-c3ccccc3)c2=O)ccc1Oc1ccccc1 [Example 16, 1-(3-ethoxy-4-phenoxyphenyl)-3-phenyl-1,3,5-triazinane-2,4,6-trione]
25 | 390 | – | 40 | Cc1cn(-c2ccccc2)c2ccc(-n3c(=O)[nH]c(=O)n(C)c3=O)cc12 [Example 37, 1-methyl-3-(3-methyl-1-phenyl-1H-indol-5-yl)-1,3,5-triazinane-2,4,6-trione]
26 | 390 | 1400 | – | Cc1cc(-n2c(=O)[nH]c(=O)n(C)c2=O)ccc1Oc1ccccc1 [Example 55, 1-methyl-3-(3-methyl-4-phenoxyphenyl)-1,3,5-triazinane-2,4,6-trione]
27 | 230 | 360 | 1100 | Cc1cc(-n2c(=O)[nH]c(=O)n(-c3cnn(-c4ccccc4)c3)c2=O)ccc1Oc1ccccc1 [Example 68, 1-(3-methyl-4-phenoxyphenyl)-3-(1-phenyl-1H-pyrazol-4-yl)-1,3,5-triazinane-2,4,6-trione]
28 | 220 | 230 | 180 | COCCOc1cc(-n2c(=O)[nH]c(=O)n(-c3cccc(Cl)c3)c2=O)ccc1Oc1ccccc1 [Example 58, 1-(3-chlorophenyl)-3-[3-(2-methoxyethoxy)-4-phenoxyphenyl]-1,3,5-triazinane-2,4,6-trione]
29 | 220 | 250 | 190 | O=c1[nH]c(=O)n(-c2ccc(Oc3ccccc3)c(Br)c2)c(=O)n1-c1ccccc1 [Example 69, 1-(3-bromo-4-phenoxyphenyl)-3-phenyl-1,3,5-triazinane-2,4,6-trione]
